The values below come from PubChem BioAssay AID1745844 (Carcinogenic Potency Database (CPDB), 2022).

The data set relates to rodent lifetime carcinogenesis bioassay, tumor incidence TD50. Nature of the data set: carcinogenic potency in animals, long-term in vivo studies, CPDB compilation (AID 1745844).

Several values for one entry are separate records, joined by “and”; a condition that tells them apart may be missing. Equal entries are not always repeated. Activity calls are given as the source filed them. The rule behind the calls is not given here.

One may read the TD50 as the dose at which the toxic effect under study appears in half of the subjects. As for `Nc1nc(N)c2nc(-c3ccccc3)c(N)nc2n1`, the TD50 (mouse, strain B6C3F1, females, in feed, site: any site (literature study), lesion: several types, types named in the paper, dosed 104 weeks, study length 104 weeks) is 132 mg/kg/day and 64.4 mg/kg/day; the TD50 (mouse, strain B6C3F1, females, in feed, site: liver, lesion: hepatocellular adenoma + hepatoblastoma + hepatocellular carcinoma, dosed 104 weeks, study length 104 weeks) was 51.3 mg/kg/day and 45.3 mg/kg/day; the TD50 (mouse, strain B6C3F1, females, in feed, site: liver, lesion: hepatocellular adenoma + hepatocellular carcinoma, dosed 104 weeks, study length 104 weeks) was 51.3 mg/kg/day and 45.3 mg/kg/day; the TD50 (mouse, strain B6C3F1, females, in feed, site: liver, lesion: hepatocellular adenoma, dosed 104 weeks, study length 104 weeks) was 46 mg/kg/day and 45.7 mg/kg/day; the TD50 (mouse, strain B6C3F1, males, in feed, site: Harderian gland, lesion: adenoma, dosed 104 weeks, study length 104 weeks) stood at 235 mg/kg/day; the TD50 (mouse, strain B6C3F1, males, in feed, site: any site (literature study), lesion: several types, types named in the paper, dosed 104 weeks, study length 104 weeks) was 205 mg/kg/day and 86.7 mg/kg/day. Moreover, the TD50 runs as follows: (mouse, strain B6C3F1, males, in feed, site: liver, lesion: hepatocellular adenoma + hepatoblastoma + hepatocellular carcinoma, dosed 104 weeks, study length 104 weeks) 169 mg/kg/day and 61.2 mg/kg/day; (mouse, strain B6C3F1, males, in feed, site: liver, lesion: hepatocellular adenoma + hepatocellular carcinoma, dosed 104 weeks, study length 104 weeks) 162 mg/kg/day and 61.2 mg/kg/day; (mouse, strain B6C3F1, males, in feed, site: liver, lesion: hepatocellular adenoma, dosed 104 weeks, study length 104 weeks) 54.8 mg/kg/day; (mouse, strain B6C3F1, males, in feed, site: liver, lesion: hepatocellular carcinoma, dosed 104 weeks, study length 104 weeks) 227 mg/kg/day; (mouse, strain B6C3F1, males, in feed, site: lung, lesion: alveolar/bronchiolar adenoma + alveolar/bronchiolar carcinoma, dosed 104 weeks, study length 104 weeks) 233 mg/kg/day and 265 mg/kg/day; (rat, strain Fischer 344, females, in feed, site: liver, lesion: hepatocellular adenoma + hepatoblastoma + hepatocellular carcinoma, dosed 104 weeks, study length 104 weeks) 520 mg/kg/day. Further, the TD50 came out at 11.8 mg/kg/day (rat, strain Fischer 344, males, in feed, site: liver, lesion: hepatocellular adenoma + hepatoblastoma + hepatocellular carcinoma, dosed 104 weeks, study length 104 weeks) and 11.8 mg/kg/day (rat, strain Fischer 344, males, in feed, site: liver, lesion: hepatocellular adenoma, dosed 104 weeks, study length 104 weeks). Besides, the carcinogen call (rat, strain Fischer 344, females, in feed, site: any site (literature study), lesion: several types, types named in the paper, dosed 104 weeks, study length 104 weeks) is “negative (inactive)”.
Regarding `COC1=CC(=O)C[C@@H](C)[C@]12Oc1c(Cl)c(OC)cc(OC)c1C2=O`, the carcinogen call is “negative (inactive)” (hamster, strain Syrian Golden, females, in feed, site: liver, lesion: cholangiocarcinoma, dosed 97 weeks, study length 101 weeks); “negative (inactive)” (hamster, strain Syrian Golden, males, in feed, site: liver, lesion: one or several types, types not named, dosed 123 weeks, study length 127 weeks); “negative (inactive)” (mouse, strain Swiss, females, in feed, site: liver, lesion: hemangioma, dosed 115 weeks, study length 115 weeks); “negative (inactive)” (mouse, strain Swiss, females, in feed, site: lung, lesion: one or several types, types not named, dosed 115 weeks, study length 115 weeks); “negative (inactive)” (mouse, strain Swiss, males, in feed, site: liver, lesion: hemangioma, dosed 115 weeks, study length 115 weeks); “negative (inactive)” (mouse, strain Swiss, males, in feed, site: lung, lesion: one or several types, types not named, dosed 115 weeks, study length 115 weeks). Also, the TD50 reads like this: (mouse, strain Swiss albino, females, by gavage, site: mammary gland, lesion: infiltrating duct carcinoma, dosed 52 weeks, study length 52 weeks) 13.8 mg/kg/day; (mouse, strain Swiss, males, in feed, site: liver, lesion: hepatoma, dosed 115 weeks, study length 115 weeks) 1660 mg/kg/day.
